Read-outs that look alike come from different tables or passages of the source.
How the values were obtained:
ZIKV [1] = assay: Image-based phenotypic antiviral screen in ZIKV-infected U87 cells; type: cell-based, Zika virus (strain H/PF/2013); details: for inhibition at 10 µM: Zika virus, U-87 MG
[2] = Screen cytotoxicity by nuclei count in ZIKV-infected U87 cells; type: cell-based; details: human, ZIKV-infected U87 cells
HAZV = assay: microbe, parasite or virus in culture; type: cell-based, Hazara virus (isolate JC280); details: for inhibition at 10 µM: Hazara virus, SW13, 24 h
ZIKV [3] = assay: Antiviral dose-response in ZIKV-infected U87 cells (infected cells, viral titer); type: cell-based, Zika virus (strain H/PF/2013); details: Zika virus, U-87 MG; for IC50: ZIKV; for EC50: U87, ZIKV MOI 1, 48 h
ZIKV [4] = assay: Antiviral dose-response in ZIKV-infected Vero cells; type: cell-based, Zika virus (strain H/PF/2013); details: Zika virus
U87 cells [5] = assay: Cell viability by nuclei count in ZIKV-infected U87 cells; type: cell-based, Human
Vero cells = assay: Cell viability by nuclei count in ZIKV-infected Vero cells; type: cell-based, African Green Monkey
[6] = Cell viability assay (Resazurin), uninfected U87 cells; type: cell-based, Human; details: human, read-out: Viability CC50 [µM] (95%-CI)
U87 cells [7] = assay: as above; type: cell-based, Human; details: Homo sapiens, U-87 MG; U87, Resazurin, all measured time points (24, 48 or 72 h); read-out: IC50 (toxicity profile, cellular viability)
in vitro = type: cell-based; details: African green monkey
ZIKV [8] = assay: ZIKV-induced cytopathic effect in U87 cells (immunofluorescence imaging); type: cell-based, Zika virus (strain H/PF/2013); details: U87, ZIKV MOI 1, 10 μM TH6744, 24, 48 or 72 h
ZIKV [9] = assay: End-point dilution assay by CPE, ZIKV-infected Vero cells; type: cell-based, Zika virus (strain H/PF/2013); details: ZIKV MOI 0.1, increasing doses, 24 h
ZIKV [10] = assay: ZIKV infection (NS1 intensity) and viral titer in human cerebral organoids; type: cell-based, Zika virus (strain H/PF/2013); details: ZIKV 2 × 10^4 particles/organoid, 5 μM
ZIKV [11] = assay: Time-of-addition assay in ZIKV-infected U87 cells; type: cell-based, Zika virus (strain H/PF/2013)
ZIKV [12] = assay: Viral budding assay in ZIKV-infected U87 cells; type: cell-based, Zika virus (strain H/PF/2013)
human brain organoids = assay: Viability and structure of ZIKV-infected human cerebral organoids; details: ZIKV 2 × 10^4 particles/organoid, 5 μM, 7 dpi and 10 dpi
ZIKV [13] = assay: Time course of ZIKV replication in U87 cells (vRNA, infected cells, titer)
[14] = U87, ZIKV MOI 10, 22 h then 5 μM for 2 h
[15] = U87, ZIKV MOI 10, 22 h then 10 μM for 2 h

CCOC(=O)c1cnn(-c2cccc3c2[nH]c(=O)n3C2CCN(C(=O)Nc3ccc(I)cc3)CC2)c1 [TH6744]
Viral Titer (ZIKV) (%) (ZIKV [1]; U87, ZIKV MOI 10, compound 10 µM, 48 h, relative to DMSO): 5% | Infected Cells (U87, ZIKV) (%) (ZIKV [1]; ZIKV MOI 10, compound 10 µM, 48 h, relative to DMSO): 88% | inhibition at 10 µM (ZIKV [1]; U87, ZIKV MOI 10, compound 10 µM, 48 h, relative to DMSO, read-out: Inhibition of ZIKV titer (%)): 95% | inhibition at 10 µM (ZIKV [1]; U87, ZIKV MOI 10, compound 10 µM, 48 h, relative to DMSO, read-out: Inhibition of primary ZIKV infection (%)): 12% | Infected Cells (U87, ZIKV) (ZIKV [1]; screen, U87 cells, ZIKV): 88% | Viral Titer (ZIKV) (ZIKV [1]; screen, U87 cells, ZIKV): 5% | viability at 48 h, 10 µM ([2]; ZIKV MOI 10, compound 10 µM, 48 h, nuclei count relative to DMSO): 105% | viability at 10 µM ([2]; screen): 105% | inhibition at 10 µM (HAZV; read-out: Inhibition of HAZV titer (%)): 90% | inhibition at 10 µM (HAZV; read-out: Inhibition of primary HAZV infection (%)): 85% | Infected Cells (SW13, HAZV) (HAZV; screen, SW13 cells, HAZV): 15% | Viral Titer (HAZV) (HAZV; screen, SW13 cells, HAZV): 10% | IC50 (ZIKV [3]; 24 h, U87, MOI 1, 24 h, read-out: Antiviral on primary infection IC50): > 50 µM | IC50 (ZIKV [3]; 24 h, U87, MOI 1, 24 h, read-out: Antiviral on titer (µM) IC50): > 50 µM | IC50 (ZIKV [3]; 24 h, U87, MOI 10, 24 h, read-out: Antiviral on primary infection IC50): > 50 µM | IC50 (ZIKV [3]; 24 h, U87, MOI 10, 24 h, read-out: Antiviral on titer (µM) IC50): 10.3 µM | IC50 (ZIKV [3]; 48 h, U87, MOI 1, 48 h, read-out: Antiviral on primary infection IC50): 7.5 µM | IC50 (ZIKV [3]; 48 h, U87, MOI 1, 48 h, read-out: Antiviral on titer (µM) IC50): 4.4 µM | IC50 (ZIKV [3]; 48 h, U87, MOI 10, 48 h, read-out: Antiviral on primary infection IC50): 12.2 µM | IC50 (ZIKV [3]; 48 h, U87, MOI 10, 48 h, read-out: Antiviral on titer (µM) IC50): 9.2 µM | EC50 (ZIKV [3]; ZIKV NS1 staining, read-out: EC50 [μM] Infected cells): 7.5 µM | EC50 (ZIKV [3]; end-point dilution assay, read-out: EC50 [μM] Viral titer): 4.4 µM | IC50 (ZIKV [4]; 24 h, MOI 1, 24 h, read-out: Antiviral on primary infection IC50): 48.4 µM | IC50 (ZIKV [4]; 24 h, MOI 1, 24 h, read-out: Antiviral on titer (µM) IC50): 3.9 µM | IC50 (ZIKV [4]; 24 h, MOI 10, 24 h, read-out: Antiviral on primary infection IC50): > 50 µM | IC50 (ZIKV [4]; 24 h, MOI 10, 24 h, read-out: Antiviral on titer (µM) IC50): 5.5 µM | IC50 (ZIKV [4]; 48 h, MOI 1, 48 h, read-out: Antiviral on primary infection IC50): 2.9 µM | IC50 (ZIKV [4]; 48 h, MOI 1, 48 h, read-out: Antiviral on titer (µM) IC50): 3.6 µM | IC50 (ZIKV [4]; 48 h, MOI 10, 48 h, read-out: Antiviral on primary infection IC50): 5.8 µM | IC50 (ZIKV [4]; 48 h, MOI 10, 48 h, read-out: Antiviral on titer (µM) IC50): 7.2 µM | EC50 (U87 cells [5]; Homo sapiens, U-87 MG, U87, ZIKV MOI 1, 48 h, nuclei count, read-out: EC50 [μM] Living cells): > 50 µM | EC50 (U87 cells [5]; Homo sapiens, U-87 MG, ZIKV, U87, MOI 10, 24 h, read-out: Viability (nuclei count) EC50): > 50 µM | EC50 (U87 cells [5]; Homo sapiens, U-87 MG, ZIKV, U87, MOI 10, 48 h, read-out: Viability (nuclei count) EC50): > 50 µM | viability (nuclei count) (U87 cells [5]; U87, ZIKV MOI 1, 24 hpi): without affecting the viability | EC50 (U87 cells [5]; ZIKV, U87, MOI 1, 24 h, read-out: Viability (nuclei count) EC50): > 50 µM | EC50 (U87 cells [5]; ZIKV, U87, MOI 1, 48 h, read-out: Viability (nuclei count) EC50): > 50 µM | EC50 (Vero cells; Chlorocebus sabaeus, MOI 10, 24 h): > 50 µM | EC50 (Vero cells; Chlorocebus sabaeus, MOI 10, 48 h): > 50 µM | EC50 (Vero cells; MOI 1, 24 h): > 50 µM | EC50 (Vero cells; MOI 1, 48 h): > 50 µM | CC50 at 24 h ([6]; uninfected U87, 24 h): > 50 µM | CC50 at 48 h ([6]; uninfected U87, 48 h): > 50 µM | CC50 at 72 h ([6]; uninfected U87, 72 h): > 50 µM | IC50 (U87 cells [7]): > 50 µM | CC50 at 24 h (in vitro): > 50 µM | CC50 at 48 h (in vitro): > 50 µM | CC50 at 72 h (in vitro): > 50 µM | effect on ZIKV-induced CPE in U87 cells (ZIKV [8]): reversed ZIKV-induced CPE | viral titer measured by CPEs (ZIKV [9]): reduced viral titer in a dose-dependent manner | ZIKV NS1 intensity in sectioned organoids (primary virus infection) (ZIKV [10]; 7 dpi): marked reduction | reduction of ZIKV progeny particles produced by the organoids (ZIKV [10]; all timepoints, relative to DMSO): 70–80% | reduction on viral titer, entry (ZIKV [11]; U87, ZIKV MOI 10, 10 μM TH6744, 1 h pre-treatment and during inoculation, titer at 24 hpi): 50% | viral titer, post-inoculation (ZIKV [11]; U87, ZIKV MOI 10, 10 μM TH6744 directly after inoculation for 24 h): pronounced reduction of viral titer | titer reduction, virus budding (ZIKV [11]; U87, ZIKV MOI 10, 10 μM TH6744 from 22 h after inoculation for 2 h): 50% | infectivity of pre-budding and post-budding particles (ZIKV [12]; U87, ZIKV MOI 10, 2 h TH6744 treatment (5 or 10 μM), dose-dependent): reduced to a similar extent | Fraction of infectious ZIKV particles: Extracellular (ZIKV [12]; [14]): 94.30% | Fraction of infectious ZIKV particles: Intracellular (ZIKV [12]; [14]): 5.70% | Fraction of infectious ZIKV particles: Extracellular (ZIKV [12]; [15]): 93.44% | Fraction of infectious ZIKV particles: Intracellular (ZIKV [12]; [15]): 6.56% | phenotypic rescue (retained structure of organoids) (human brain organoids): phenotypic rescue | ZIKV-infected cells (ZIKV [13]; U87, ZIKV MOI 1, 24 hpi): no reduction | reduction of extracellular vRNA levels (ZIKV [13]; U87, ZIKV MOI 1, 24 hpi): 50% | reduction of viral titers (ZIKV [13]; U87, ZIKV MOI 1, 24 hpi): 75% | intracellular ZIKV vRNA (ZIKV [13]; U87, ZIKV MOI 1, 24 hpi, qPCR): no reduction | intracellular ZIKV vRNA levels (ZIKV [13]; U87, ZIKV MOI 1, 48 hpi): remained unchanged | reduction of number of ZIKV-infected cells (ZIKV [13]; U87, ZIKV MOI 1, 48 hpi): 65% | reduction of titer (ZIKV [13]; U87, ZIKV MOI 1, 48 hpi): 83% | decrease of number of ZIKV-infected cells (ZIKV [13]; U87, ZIKV MOI 1, 72 h exposure): 40% | decrease of viral titer (ZIKV [13]; U87, ZIKV MOI 1, 72 h exposure): 63%
